These results are taken from US20220169639A1 (priority 2018, published 2022).

For this assay, the system named is HBeAg (surrogate marker for cccDNA) in HepDES19 cells. The assay is described as follows: Engineered HepDES19 primary screen assay (HBeAg ELISA). The format is cell-based, HBV. To be noted: Hepatitis B virus, 120 h, HBeAg in culture supernatant, 5 days incubation, read-out: IC50 (HepDES19 primary screen assay, inhibition of extracellular HBeAg level). The source says: The assay was employed to screen for cccDNA inhibitors. HepDES19 is a cccDNA-producing cell line. In this cell line, HBeAg in the cell culture supernatant as surrogate marker, as HBeAg production depends on cccDNA level and activity. HepDES19 is an engineered cell line which contains a 1.1 unit length HBV genome, and pgRNA transcription from the transgene is controlled by Tetracycline (Tet). In the absence of Tet, pgRNA transcription will be induced, but HBV e antigen (HBeAg) could not be produced from this pgRNA due to very short leader sequence before the HBeAg start codon and the start codon is disrupted. Only after cccDNA is formed, the missing leader sequence and start codon mutation would be restored from the 3′-terminal redundancy of pgRNA, and then HBeAg could be synthesized. Therefore, HBeAg could be used as a surrogate marker for cccDNA (Zhou, T. et al., Antiviral Res. (2006), 72(2), 116-124; Guo, H. et al., J. Virol. (2007), 81(22), 12472-12484).
HepDES19 cells were seeded at 2×10^6 cells per T150 flask and cultured with the culture medium (Dulbecco's Modified Eagle Medium: Nutrient Mixture F-12 [DMEM-F12, Gibco Cat. 11320-82], 10% Fetal Bovine Serum [FBS, Clontech Cat. 631101], 0.1 mM Non-Essential Amino Acids Solution [NEAA, Gibco Cat. 11140-050], 50 μg/mL Penicillin-Streptomycin [PS, Invitrogen Cat. 15140-163], 500 μg/mL Geneticin [G418, Invitrogen Cat. 10131-027]) containing 3 μg/mL Tet (Sigma, Cat. 87128) for 5 days. Cells were then seeded at 4×10^6 cells per T150 in the same culture medium as described above in the absence of Tet for 8 days. Cells were then harvested and frozen at density of 2×10^6 cells per mL. For compound testing, the frozen cells were thawed and seeded into 96-well plates at a density of 6×10^4 cells per well. At 24 hours after seeding, half log serial dilutions of compounds made with Dimethyl sulfoxide (DMSO, Sigma, Cat. D2650) were further diluted with the same culture medium as described above before they were added to the cells to reach desired final compound concentrations and 1% DMSO concentration. Plates were then incubated at 37° C. for another 5 days before measurement of HBeAg level and cell viability. Intracellular HBeAg level were measured with enzyme-linked immunosorbent assay (ELISA) kit (Shanghai Kehua Diagnostic Medical Products Co., Ltd). Cell viability was assessed using Cell Counting Kit-8 (DonJindo, Cat. CK04-20). IC50 values were derived from the dose-response curve using 4 parameter logistic curve fit method.
The compounds of the present invention were tested for their capacity to inhibit extracellular HBeAg level as described herein.

Consider `O=C(O)[C@@H]1C[C@H](NCCCOc2cc(Br)ccc2-c2cc(=O)c3cccc(Cl)c3o2)CCO1` (relative stereo) [Example 060, cis-4-[3-[5-bromo-2-(8-chloro-4-oxo-chromen-2-yl)phenoxy]propylamino]tetrahydropyran-2-carboxylic acid], for which the half-maximal inhibitory concentration (IC50) was 4870 nM.

On to `O=C(O)[C@H]1CCCN1CCCOc1cc(Br)ccc1-c1cc(=O)c2cccc(Cl)c2o1` [Example 003, (2R)-1-[3-[5-bromo-2-(8-chloro-4-oxo-chromen-2-yl)phenoxy]propyl]pyrrolidine-2-carboxylic acid], for which the IC50 was found to be 2410 nM. On to `O=C(O)[C@@H]1CCCN1CCCOc1cc(Br)ccc1-c1cc(=O)c2cccc(Cl)c2o1` [Example 004, (2S)-1-[3-[5-bromo-2-(8-chloro-4-oxo-chromen-2-yl)phenoxy]propyl]pyrrolidine-2-carboxylic acid], for which the concentration for half-maximal inhibition (IC50) was found to be 2020 nM.

For the compound `O=C(O)CC1CCN(CCCOc2cc(C(F)(F)F)ccc2-c2cc(=O)c3cccc(Cl)c3o2)C1` (stereo not shown) [Example 008, 2-[1-[3-[2-(8-chloro-4-oxo-chromen-2-yl)-5-(trifluoromethyl)phenoxy]propyl]pyrrolidin-3-yl]acetic acid], the IC50 came out at 170 nM. Take `CC(C)[C@@H](NCCCOc1cc(C(F)(F)F)ccc1-c1cc(=O)c2cccc(Cl)c2o1)C(=O)O` [Example 009, (2R)-2-[3-[2-(8-chloro-4-oxo-chromen-2-yl)-5-(trifluoromethyl)phenoxy]propylamino]-3-methyl-butanoic acid]: the IC50 worked out at 7470 nM. As for `O=C(O)C(=O)NCC1(COc2cc(C(F)(F)F)ccc2-c2cc(=O)c3cccc(Cl)c3o2)COC1` [Example 010, 2-[[3-[[2-(8-chloro-4-oxo-chromen-2-yl)-5-(trifluoromethyl)phenoxy]methyl]oxetan-3-yl]methylamino]-2-oxo-acetic acid], the figure is 220 nM.

Turning to `CC(C)(C)CC(NCCCOc1cc(C(F)(F)F)ccc1-c1cc(=O)c2cccc(Cl)c2o1)C(=O)O` (stereo not shown) [Example 011, 2-[3-[2-(8-chloro-4-oxo-chromen-2-yl)-5-(trifluoromethyl)phenoxy]propylamino]-4,4-dimethyl-pentanoic acid], the 50% inhibitory concentration (IC50) was 3610 nM. In the case of `O=C(O)C1CCN(CCCOc2cc(C(F)(F)F)ccc2-c2cc(=O)c3cccc(Cl)c3o2)C1` (stereo not shown) [Example 012, 1-[3-[2-(8-chloro-4-oxo-chromen-2-yl)-5-(trifluoromethyl)phenoxy]propyl]pyrrolidine-3-carboxylic acid], the half-inhibitory concentration (IC50) came to 110 nM. For the compound `O=C(O)C1CCN(CCOc2cc(Br)ccc2-c2cc(=O)c3cccc(Cl)c3o2)C1` (stereo not shown) [Example 021, 1-[2-[5-bromo-2-(8-chloro-4-oxo-chromen-2-yl)phenoxy]ethyl]pyrrolidine-3-carboxylic acid], the concentration for half-maximal inhibition (IC50) amounted to 180 nM.

As for `C[C@@H]1CN(CCOc2cc(Br)ccc2-c2cc(=O)c3cccc(Cl)c3o2)C[C@H]1C(=O)O` [Example 024, (3S,4S)-1-[2-[5-bromo-2-(8-chloro-4-oxo-chromen-2-yl)phenoxy]ethyl]-4-methyl-pyrrolidine-3-carboxylic acid], the IC50 amounted to 1040 nM.

For `O=C(O)C12CC(NCCOc3cc(Br)ccc3-c3cc(=O)c4cccc(Cl)c4o3)(C1)C2` [Example 026, 3-[2-[5-bromo-2-(8-chloro-4-oxo-chromen-2-yl)phenoxy]ethylamino]bicyclo[1.1.1]pentane-1-carboxylic acid], the IC50 came out at 460 nM. As for `O=C(O)C1CCN(CCOc2ccccc2-c2cc(=O)c3cccc(Cl)c3o2)CC1` [Example 029, 1-[2-[2-(8-chloro-4-oxo-chromen-2-yl)phenoxy]ethyl]piperidine-4-carboxylic acid], the figure is 1850 nM; as for `O=C(O)[C@H]1CCCN1CCOc1ccccc1-c1cc(=O)c2cccc(Cl)c2o1` [Example 030, (2R)-1-[2-[2-(8-chloro-4-oxo-chromen-2-yl)phenoxy]ethyl]pyrrolidine-2-carboxylic acid], 1330 nM.

In the case of `O=C(O)C1CCN(CCOc2ccccc2-c2cc(=O)c3cccc(Cl)c3o2)C1` (stereo not shown) [Example 031, 1-[2-[2-(8-chloro-4-oxo-chromen-2-yl)phenoxy]ethyl]pyrrolidine-3-carboxylic acid], the IC50 came out at 170 nM. For the compound `O=C(O)[C@@H]1CCCN1CCOc1ccccc1-c1cc(=O)c2cccc(Cl)c2o1` [Example 032, (2S)-1-[2-[2-(8-chloro-4-oxo-chromen-2-yl)phenoxy]ethyl]pyrrolidine-2-carboxylic acid], the concentration for half-maximal inhibition (IC50) worked out at 650 nM.

Turning to `O=C(O)C1CN(CCOc2ccccc2-c2cc(=O)c3cccc(Cl)c3o2)C1` [Example 033, 1-[2-[2-(8-chloro-4-oxo-chromen-2-yl)phenoxy]ethyl]azetidine-3-carboxylic acid], the half-maximal inhibitory concentration (IC50) was found to be 1090 nM. In the case of `O=C(O)[C@H]1CCN(CCOc2cc(C(F)(F)F)ccc2-c2cc(=O)c3cccc(Cl)c3o2)C1` [Example 034, (3S)-1-[2-[2-(8-chloro-4-oxo-chromen-2-yl)-5-(trifluoromethyl)phenoxy]ethyl]pyrrolidine-3-carboxylic acid], the concentration for half-maximal inhibition (IC50) was 1120 nM.

Take `O=C(O)C1CN(CCOc2cc(C(F)(F)F)ccc2-c2cc(=O)c3cccc(Cl)c3o2)CCO1` (stereo not shown) [Example 035, 4-[2-[2-(8-chloro-4-oxo-chromen-2-yl)-5-(trifluoromethyl)phenoxy]ethyl]morpholine-2-carboxylic acid]: the half-maximal inhibitory concentration (IC50) is 2380 nM.

Regarding `CC(C)[C@@H](NCCOc1cc(C(F)(F)F)ccc1-c1cc(=O)c2cccc(Cl)c2o1)C(=O)O` [Example 036, (2R)-2-[2-[2-(8-chloro-4-oxo-chromen-2-yl)-5-(trifluoromethyl)phenoxy]ethylamino]-3-methyl-butanoic acid], the IC50 was 2030 nM. For the compound `CC(C)[C@H](NCCOc1cc(C(F)(F)F)ccc1-c1cc(=O)c2cccc(Cl)c2o1)C(=O)O` [Example 037, (2S)-2-[2-[2-(8-chloro-4-oxo-chromen-2-yl)-5-(trifluoromethyl)phenoxy]ethylamino]-3-methyl-butanoic acid], the IC50 is 4120 nM.

As to `O=C(O)C1CC(NCCOc2cc(C(F)(F)F)ccc2-c2cc(=O)c3cccc(Cl)c3o2)C1` (stereo not shown) [Example 038, 3-[2-[2-(8-chloro-4-oxo-chromen-2-yl)-5-(trifluoromethyl)phenoxy]ethylamino]cyclobutanecarboxylic acid], the IC50 turned out to be 7240 nM.

`CC(C)COc1ccc(-c2cc(=O)c3cccc(Cl)c3o2)c(OCCN2CC[C@@H](C(=O)O)C2)c1` [Example 039, (3R)-1-[2-[2-(8-chloro-4-oxo-chromen-2-yl)-5-isobutoxy-phenoxy]ethyl]pyrrolidine-3-carboxylic acid]: the IC50 came to 3480 nM. Next, `CC(C)COc1ccc(-c2cc(=O)c3cccc(Cl)c3o2)c(OCCN2CC[C@H](C(=O)O)C2)c1` [Example 040, (3S)-1-[2-[2-(8-chloro-4-oxo-chromen-2-yl)-5-isobutoxy-phenoxy]ethyl]pyrrolidine-3-carboxylic acid]: 9060 nM; `O=C(O)C1CCN(CCOc2ccccc2-c2cc(=O)c3cc(F)cc(Cl)c3o2)C1` (stereo not shown) [Example 043, 1-[2-[2-(8-chloro-6-fluoro-4-oxo-chromen-2-yl)phenoxy]ethyl]pyrrolidine-3-carboxylic acid]: 1420 nM.

As to `Cc1cc(-c2cc(=O)c3cccc(Cl)c3o2)c(OCCN2CCC[C@@H]2C(=O)O)cc1Br` [Example 044, (2R)-1-[2-[5-bromo-2-(8-chloro-4-oxo-chromen-2-yl)-4-methyl-phenoxy]ethyl]pyrrolidine-2-carboxylic acid], the IC50 was 4750 nM. Take `Cc1cc(-c2cc(=O)c3cccc(Cl)c3o2)c(OCCN2CCC[C@H]2C(=O)O)cc1Cl` [Example 045]: the IC50 was found to be 6500 nM. Consider `Cc1cc(-c2cc(=O)c3cccc(Cl)c3o2)c(OCCCNC2CC(C(=O)O)C2)cc1Cl` (stereo not shown) [Example 046, 3-[3-[5-chloro-2-(8-chloro-4-oxo-chromen-2-yl)-4-methyl-phenoxy]propylamino]cyclobutanecarboxylic acid], for which the IC50 was found to be 4370 nM. In the case of `Cc1cc(-c2cc(=O)c3cccc(Cl)c3o2)c(OCCOCCN2CCC[C@@H]2C(=O)O)cc1Br` [Example 048, (2R)-1-[2-[2-[5-bromo-2-(8-chloro-4-oxo-chromen-2-yl)-4-methyl-phenoxy]ethoxy]ethyl]pyrrolidine-2-carboxylic acid], the IC50 is 6680 nM.

In general, IC50 refers to the concentration that inhibits the measured activity by half.
